Laboratory results published in patent publication US20220008508A1, “RELAXIN RECEPTOR 1 FOR USE IN TREATMENT AND PREVENTION OF HEART FAILURE” (Universität Heidelberg, priority 2018, published 2022).

What was measured:
rat RXFP1 = molecular target: T1, rat RXFP1 (Rattus norvegicus, UniProt Q6R6I6); experiment: P-PLB(S16) immunoblot in NRVMs transduced with rat RXFP1 virus; assay type: cell-based; conditions: 1 μM ML290 for 30 minutes
T1 construct: expressed in transfected cells
T1 sequence (Q6R6I6 1-758): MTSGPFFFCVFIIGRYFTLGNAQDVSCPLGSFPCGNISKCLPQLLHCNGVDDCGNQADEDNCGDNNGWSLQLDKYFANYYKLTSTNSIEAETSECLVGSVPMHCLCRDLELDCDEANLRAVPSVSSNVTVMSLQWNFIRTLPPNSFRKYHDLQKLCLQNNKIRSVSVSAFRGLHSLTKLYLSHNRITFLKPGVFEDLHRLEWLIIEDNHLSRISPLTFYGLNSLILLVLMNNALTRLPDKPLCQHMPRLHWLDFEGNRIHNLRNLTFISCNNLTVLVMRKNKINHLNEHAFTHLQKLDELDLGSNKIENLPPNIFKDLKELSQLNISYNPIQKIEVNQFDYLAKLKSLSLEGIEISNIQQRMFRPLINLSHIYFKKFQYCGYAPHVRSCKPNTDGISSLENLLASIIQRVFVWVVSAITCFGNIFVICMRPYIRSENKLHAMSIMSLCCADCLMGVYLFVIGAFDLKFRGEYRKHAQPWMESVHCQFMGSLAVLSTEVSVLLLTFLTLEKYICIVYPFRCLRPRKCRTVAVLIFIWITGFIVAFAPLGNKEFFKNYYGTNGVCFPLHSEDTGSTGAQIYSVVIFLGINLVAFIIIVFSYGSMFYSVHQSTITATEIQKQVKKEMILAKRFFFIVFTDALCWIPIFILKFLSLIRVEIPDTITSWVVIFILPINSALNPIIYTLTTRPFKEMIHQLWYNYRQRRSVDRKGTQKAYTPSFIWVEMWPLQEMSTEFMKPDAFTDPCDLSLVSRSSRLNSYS
From the text: (§1) Images were processed using Odyssey imaging software.

human RXFP1 = molecular target: T2, human RXFP1 (Homo sapiens, UniProt Q9HBX9); experiment: P-PLB(S16) immunoblot in NRVMs transduced with human RXFP1 virus; assay type: cell-based, rat
T2 construct: synthesized and cloned into a pCDNA3.1 plasmid with N-terminal FLAG-TAG; expressed in transfected cells; host or cells: neonatal rat ventricular cardiomyocytes (NRVMs) transduced with AAV6-huRXFP1
T2 sequence (Q9HBX9 other isoform, or with tags, fused parts or gaps): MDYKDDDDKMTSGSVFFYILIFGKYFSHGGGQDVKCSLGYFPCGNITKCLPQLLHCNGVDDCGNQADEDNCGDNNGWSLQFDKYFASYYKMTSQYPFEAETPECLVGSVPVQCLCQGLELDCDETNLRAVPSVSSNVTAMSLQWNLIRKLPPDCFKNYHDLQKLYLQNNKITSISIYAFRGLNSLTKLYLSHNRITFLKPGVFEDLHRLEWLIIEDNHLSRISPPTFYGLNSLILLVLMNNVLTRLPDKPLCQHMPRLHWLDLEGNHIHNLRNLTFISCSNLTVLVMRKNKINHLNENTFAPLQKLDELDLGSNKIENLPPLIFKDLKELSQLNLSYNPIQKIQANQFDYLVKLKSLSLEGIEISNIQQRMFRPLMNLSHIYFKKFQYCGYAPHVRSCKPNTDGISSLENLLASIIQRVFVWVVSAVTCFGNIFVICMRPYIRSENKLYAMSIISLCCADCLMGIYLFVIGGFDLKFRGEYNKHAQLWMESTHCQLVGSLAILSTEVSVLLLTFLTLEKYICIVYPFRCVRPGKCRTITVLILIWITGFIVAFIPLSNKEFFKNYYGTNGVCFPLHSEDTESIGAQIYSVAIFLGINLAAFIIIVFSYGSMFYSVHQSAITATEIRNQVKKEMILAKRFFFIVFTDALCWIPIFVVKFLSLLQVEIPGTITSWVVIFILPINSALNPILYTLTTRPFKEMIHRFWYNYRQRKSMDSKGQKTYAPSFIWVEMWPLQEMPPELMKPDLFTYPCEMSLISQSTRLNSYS
From the text: as §1

[1] = molecular target: rat (Rattus norvegicus) relaxin receptor 1 (RXFP1) with N-terminal FLAG-TAG, expressed in neonatal rat ventricular cardiomyocytes from AAV6-CMV-MLC260-FLAG-Rel1 Rattus (Rattus norvegicus) (UniProt Q6R6I6); experiment: cell-based or functional assay

| Compound | P-PLB(S16) (rat RXFP1) | P-PLB(S16), 1 μM ML290 vs 100 nM recombinant RLN (human RXFP1) | P-PLB(S16) (human RXFP1; 1 μM ML290 for 30 minutes) | RLN concentration of peak cAMP stimulation in transduced NRVMs [1] |
| --- | --- | --- | --- | --- |
| CC(C)Oc1ccccc1C(=O)Nc1ccccc1C(=O)Nc1cccc(S(=O)(=O)C(F)(F)F)c1 [ML290, 2-Isopropoxy-N-(2-(3-(trifluoromethylsulfonyl)phenylcarbamoyl)phenyl)benzamide] | Marked increase | No difference | Significant increase |  |
| recombinant relaxin H2 (from UniProt P04090 25-53; P04090 162-185) (ligand) |  |  |  | 10 nM |
